Experimental data taken from US11731969B2, “Crystal polymorph of 8-bromo-2-(1-methylpiperidin-4-ylamino)-4-(4-phenoxyphenylamino)pyrido[4,3-d]pyrimidin-5(6H)-one hydrochloride and method for preparing same” (OSCOTEC INC., priority 2018, dated 2023).
Where a name gives a salt, the structure may show the parent alone.

Legend:
[1] = system: protein kinase; settings: see Korean Laid-open Patent Publication No. 2014-0144709; cited from earlier work
[2] = Evaluation of hygroscopicity by dynamic moisture adsorption analyzer (DVS); assay type: physicochemical; settings: for Hygroscopicity (%): 25° C., DVS, hydrochloride
Procedure: 8-bromo-2-(1-methylpiperidin-4-ylamino)-4-(4-phenoxyphenylamino)pyrido[4,3-d]pyrimidin-5(6H)-one hydrochloride (Compound 1) represented by the above Formula 1 and the crystalline form (VI) obtained in the Examples were measured for hygroscopicity in a relative humidity range of 0% to 90% at 25° C. using a dynamic moisture adsorption analyzer (DVS).

[3] = Evaluation of solubility in distilled water (HPLC); assay type: physicochemical; settings: for Solubility: distilled water, 20 mg/ml added, stirred 2 hours at room temperature (25° C.), filtered, HPLC, hydrochloride; for Solubility as compared with Compound 1 (in words): summary of Table 1
Procedure: Distilled water was added to 8-bromo-2-(1-methylpiperidin-4-ylamino)-4-(4-phenoxyphenylamino)pyrido[4,3-d]pyrimidin-5(6H)-one hydrochloride (Compound 1) represented by the above Formula 1 and the crystalline form (VI) and the crystalline form (X) obtained in the Examples such that the concentration was 20 mg/ml, which was stirred for 2 hours at room temperature (25° C.) and then filtered. Thereafter, it was diluted 200 times with acetonitrile of a concentration of 50%.

Compound | Effect on the activity of protein kinase (in words) [1] | Hygroscopicity (%) ([2]; relative humidity 0.0%) | Hygroscopicity (%) ([2]; relative humidity 10.0%) | Hygroscopicity (%) ([2]; relative humidity 20.0%) | Hygroscopicity (%) ([2]; relative humidity 30.0%) | Hygroscopicity (%) ([2]; relative humidity 40.0%) | Hygroscopicity (%) ([2]; relative humidity 50.0%) | Hygroscopicity (%) ([2]; relative humidity 60.0%) | Hygroscopicity (%) ([2]; relative humidity 70.0%) | Hygroscopicity (%) ([2]; relative humidity 80.0%) | Hygroscopicity (%) ([2]; relative humidity 90.0%) | Solubility [3] [mg/mL] | Hygroscopicity as compared with Compound 1 (in words) ([2]; summary of Table 2) | Solubility as compared with Compound 1 (in words) [3]
CN1CCC(Nc2nc(Nc3ccc(Oc4ccccc4)cc3)c3c(=O)[nH]cc(Br)c3n2)CC1 [Compound 1, 8-bromo-2-(1-methylpiperidin-4-ylamino)-4-(4-phenoxyphenylamino)pyrido[4,3-d]pyrimidin-5(6H)-one hydrochloride] | has an effect of inhibiting the activity of protein kinase | 0.001 | 0.655 | 1.202 | 1.695 | 2.081 | 2.457 | 2.823 | 3.215 | 3.696 | 4.584 | 0.25 | – | –
CN1CCC(Nc2nc(Nc3ccc(Oc4ccccc4)cc3)c3c(=O)[nH]cc(Br)c3n2)CC1 [Crystalline form (VI), 8-bromo-2-(1-methylpiperidin-4-ylamino)-4-(4-phenoxyphenylamino)pyrido[4,3-d]pyrimidin-5(6H)-one hydrochloride] | – | 0.004 | 0.707 | 0.948 | 1.132 | 1.280 | 1.419 | 1.561 | 1.726 | 1.973 | 2.452 | 19.1 | improved hygroscopicity | improved solubility
CN1CCC(Nc2nc(Nc3ccc(Oc4ccccc4)cc3)c3c(=O)[nH]cc(Br)c3n2)CC1 [Crystalline form (X), 8-bromo-2-(1-methylpiperidin-4-ylamino)-4-(4-phenoxyphenylamino)pyrido[4,3-d]pyrimidin-5(6H)-one hydrochloride] | – | – | – | – | – | – | – | – | – | – | – | 17.3 | – | improved solubility
